Measured values published in patent publication US8822449B2, “Substituted aminoindanes and analogs thereof, and the pharmaceutical use thereof” (Sanofi, priority 2008, dated 2014).

Biological target: T1, sodium-proton exchanger of subtype 3 (NHE3) (Homo sapiens, UniProt P48764)
T1 construct: expressed in transfected cells
T1 sequence (P48764 26-834): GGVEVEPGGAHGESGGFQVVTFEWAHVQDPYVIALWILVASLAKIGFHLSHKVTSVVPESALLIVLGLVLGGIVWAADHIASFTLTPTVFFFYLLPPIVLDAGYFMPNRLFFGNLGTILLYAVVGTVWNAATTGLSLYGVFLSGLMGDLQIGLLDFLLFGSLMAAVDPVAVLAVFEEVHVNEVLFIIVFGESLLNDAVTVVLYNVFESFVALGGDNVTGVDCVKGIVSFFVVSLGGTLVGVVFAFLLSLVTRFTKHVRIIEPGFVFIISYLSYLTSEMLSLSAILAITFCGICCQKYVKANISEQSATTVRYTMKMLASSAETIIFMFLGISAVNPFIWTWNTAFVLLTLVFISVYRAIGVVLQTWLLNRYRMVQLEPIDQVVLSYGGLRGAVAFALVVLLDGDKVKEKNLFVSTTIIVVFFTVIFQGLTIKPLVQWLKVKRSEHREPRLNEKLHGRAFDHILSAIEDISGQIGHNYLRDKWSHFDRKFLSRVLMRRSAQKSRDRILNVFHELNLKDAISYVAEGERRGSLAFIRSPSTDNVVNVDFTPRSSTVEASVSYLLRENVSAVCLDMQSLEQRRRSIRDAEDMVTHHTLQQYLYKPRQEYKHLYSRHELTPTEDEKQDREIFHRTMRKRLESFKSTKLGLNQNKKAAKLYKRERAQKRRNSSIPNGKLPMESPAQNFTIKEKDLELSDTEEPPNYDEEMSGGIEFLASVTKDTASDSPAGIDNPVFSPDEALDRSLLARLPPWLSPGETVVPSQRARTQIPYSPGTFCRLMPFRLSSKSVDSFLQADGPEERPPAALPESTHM
Assay: Recovery of intracellular pH (pHi) after acidification in LAP1 cells stably expressing NHE3 (BCECF fluorescence, FLIPR)
Type: cell-based
Details: LAP1 cells stably expressing NHE3; pH recovery after acidification; range 1 is % inhibition at 10 μM; read-out: Activity range (inhibitory effect on NHE3)

| SMILES | IC50 | inhibition at 10 µM |
| --- | --- | --- |
| CN1CCN(c2cccc(O[C@H]3c4cc(Cl)cc(F)c4C[C@@H]3N3CC[C@@H](O)C3)c2)C1=O [Example 320, 1-{3-[trans-(1S,2S)-6-chloro-4-fluoro-2-((R)-3-hydroxypyrrolidin-1-yl)indan-1-yloxy]phenyl}-3-methylimidazolidin-2-one] | 1000 to 10000 nM | – |
| O=C1CCCN1c1ccc(O[C@H]2c3cc(Cl)cc(Cl)c3C[C@@H]2N2CCC2)cc1 [Example 259, 1-[4-((1S,2S)-2-azetidin-1-yl-4,6-dichloroindan-1-yloxy)phenyl]pyrrolidin-2-one] | – | 20 to 50% |
| CS(=O)(=O)c1ccc(O[C@H]2c3cc(Cl)ccc3C[C@@H]2N2CCN(CCO)CC2)cc1 (racemic) [Example 384, 2-{4-[rac-trans-(1,2)-6-chloro-1-(4-methanesulfonylphenoxy)indan-2-yl]piperazin-1-yl}-ethanol] | – | 20 to 50% |
| CS(=O)(=O)c1ccc(O[C@H]2c3cc(Cl)cc(Cl)c3C[C@@H]2N2CCC[C@@H](N)C2)cc1 [Example 102, (R)-1-[trans-(1S,2S)-4,6-dichloro-1-(4-methanesulfonylphenoxy)indan-2-yl]piperidin-3-ylamine] | < 1000 nM | – |
| O=C1CCC(=O)N1c1ccc(O[C@H]2c3cc(Cl)cc(F)c3C[C@@H]2NC2CCCC2)c(F)c1 [Example 752, 1-[4-(trans-(1S,2S)-6-Chloro-2-cyclopentylamino-4-fluoro-indan-1-yloxy)-3-fluoro-phenyl]-pyrrolidine-2,5-dione] | 1000 to 10000 nM | – |
| CS(=O)(=O)c1ccc(O[C@H]2c3cc(F)ccc3C[C@@H]2N2CCNCC2)cc1 (racemic) [Example 294, 1-[rac-trans-(1,2)-6-fluoro-1-(4-methanesulfonylphenoxy)indan-2-yl]piperazine] | 1000 to 10000 nM | – |
| c1cc(O[C@@H]2c3ccccc3C[C@H]2N2C[C@H]3CNC[C@H]3C2)cc(N2CCCCC2)c1 (racemic) [Example 15, 2-[rac-trans-(1,2)-1-(3-piperidin-1-ylphenoxy)indan-2-yl]octahydropyrrolo[3,4-c]pyrrole] | 1000 to 10000 nM | – |
| Cc1cc(O[C@H]2c3ccccc3CC[C@@H]2N2CCC[C@@H](N)C2)ccc1Cl (racemic) [Example 65, (R)-1-[rac-trans-(1,2)-1-(4-chloro-3-methylphenoxy)-1,2,3,4-tetrahydronaphthalen-2-yl]piperidin-3-ylamine] | – | 20 to 50% |
| CC(=O)Nc1cccc(O[C@H]2c3cc(Cl)cc(Cl)c3C[C@@H]2N2CC[C@@H](O)C2)c1 [Example 696, N-{3-[trans-(1S,2S)-4,6-dichloro-2-((R)-3-hydroxypyrrolidin-1-yl)indan-1-yloxy]phenyl}acetamide] | < 1000 nM | – |

The remaining lines, values ahead:

| IC50 | inhibition at 10 µM | SMILES |
| --- | --- | --- |
| 1000 to 10000 nM | – | Nc1ccc2c(O[C@H]3c4ccccc4CC[C@@H]3N3CCC[C@H](N)C3)cccc2c1 (racemic) [Example 189, (S)-1-[rac-trans-(1,2)-1-(6-aminonaphthalen-1-yloxy)-1,2,3,4-tetrahydronaphthalen-2-yl]piperidin-3-ylamine] |
| < 1000 nM | – | CN1CCN(c2ccc(F)c(O[C@H]3c4cc(Cl)cc(Cl)c4C[C@@H]3N3CC[C@@H](O)C3)c2)C1=O [Example 314, 1-{3-[(1S,2S)-4,6-dichloro-2-((R)-3-hydroxypyrrolidin-1-yl)indan-1-yloxy]-4-fluorophenyl}-3-methylimidazolidin-2-one] |
| < 1000 nM | – | CS(=O)(=O)c1ccc(O[C@H]2c3cc(Cl)cc(F)c3C[C@@H]2N2CCNCC2)cc1 (racemic) [Example 292, 1-[rac-trans-(1,2)-6-chloro-4-fluoro-1-(4-methanesulfonylphenoxy)indan-2-yl]piperazine] |
| – | 20 to 50% | Cc1cccc(Cl)c1O[C@H]1c2ccccc2CC[C@@H]1N1CCC[C@@H](N)C1 (racemic) [Example 39, (R)-1-[rac-trans-(1,2)-1-(2-chloro-6-methylphenoxy)-1,2,3,4-tetrahydronaphthalen-2-yl]piperidin-3-ylamine] |
